According to ChEMBL document CHEMBL1201862, “PubChem BioAssay data set” (2004):
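Cells were grown in 96-well plates and exposed to each compound for 48 hours at five concentrations; endpoints were interpolated linearly between bracketing concentrations, or set to the highest concentration if not reached. GI50: concentration for 50% inhibition of growth.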 Activity calls are given as the source filed them. No stated cut-off is given here; in the data, active = GI50 up to about 1.1 µM and inactive = higher.

Assays:
Experiment in all cases: NCI-60 cell line screen, 48 h
K562 = tested on: K562
CAKI-1 = tested on: CAKI-1
SK-MEL-5 = tested on: SK-MEL-5
HT-29 = tested on: HT-29
HCC 2998 = tested on: HCC 2998
COLO 205 = tested on: COLO 205
A549 = tested on: A549
UACC-257 = tested on: UACC-257
SNB-19 = tested on: SNB-19
HOP-92 = tested on: HOP-92
HL-60 = tested on: HL-60
EKVX = tested on: EKVX
RPMI-8226 = tested on: RPMI-8226
IGROV-1 = tested on: IGROV-1
NCI-H226 = tested on: NCI-H226
SN12C = tested on: SN12C
OVCAR-4 = tested on: OVCAR-4
SW-620 = tested on: SW-620
TK-10 = tested on: TK-10
M14 = tested on: M14

SMILES	GI50 (K562)	GI50 (CAKI-1)	GI50 (SK-MEL-5)	GI50 (HT-29)	GI50 (HCC 2998)	GI50 (COLO 205)	GI50 (A549)	GI50 (UACC-257)	GI50 (SNB-19)	GI50 (HOP-92)	GI50 (HL-60)	GI50 (EKVX)	GI50 (RPMI-8226)	GI50 (IGROV-1)	GI50 (NCI-H226)	GI50 (SN12C)	GI50 (OVCAR-4)	GI50 (SW-620)	GI50 (TK-10)	GI50 (M14)
Cc1c2cnccc2c(C)c2c1c1ccccc1n2CCCCCCNCc1ccccc1	0.541 µM (active)	1.89 µM (inactive)	2.36 µM (inactive)	1.36 µM (inactive)	1.88 µM (inactive)	1.43 µM (inactive)	1.91 µM (inactive)	1.96 µM (inactive)	1.88 µM (inactive)	2.03 µM (inactive)	1.03 µM (active)	2.11 µM (inactive)	0.766 µM (active)	1.8 µM (inactive)	1.55 µM (inactive)	1.59 µM (inactive)	0.787 µM (active)	0.608 µM (active)	–	–
O=C1C(Cl)N(c2ccccc2)C1c1c[nH]c2ccccc12 (stereo unspecified)	> 100 µM (inactive)	–	> 100 µM (inactive)	> 100 µM (inactive)	–	> 100 µM (inactive)	> 100 µM (inactive)	> 100 µM (inactive)	48.9 µM (inactive)	> 100 µM (inactive)	> 100 µM (inactive)	> 100 µM (inactive)	> 100 µM (inactive)	> 100 µM (inactive)	–	> 100 µM (inactive)	> 100 µM (inactive)	> 100 µM (inactive)	> 100 µM (inactive)	> 100 µM (inactive)
c1ccc2cc3n[se]nc3cc2c1	> 100 µM (inactive)	> 100 µM (inactive)	68.1 µM (inactive)	> 100 µM (inactive)	38.9 µM (inactive)	> 100 µM (inactive)	52.7 µM (inactive)	> 100 µM (inactive)	81.1 µM (inactive)	–	> 100 µM (inactive)	> 100 µM (inactive)	> 100 µM (inactive)	48.8 µM (inactive)	–	91.8 µM (inactive)	> 100 µM (inactive)	> 100 µM (inactive)	> 100 µM (inactive)	> 100 µM (inactive)
COC(OC)C1OC(CO)C(n2cc(F)c(=O)[nH]c2=O)C1O (stereo unspecified)	> 100 µM (inactive)	> 100 µM (inactive)	–	> 100 µM (inactive)	> 100 µM (inactive)	10.7 µM (inactive)	> 100 µM (inactive)	> 100 µM (inactive)	> 100 µM (inactive)	> 100 µM (inactive)	> 100 µM (inactive)	> 100 µM (inactive)	> 100 µM (inactive)	> 100 µM (inactive)	> 100 µM (inactive)	> 100 µM (inactive)	> 100 µM (inactive)	> 100 µM (inactive)	> 100 µM (inactive)	> 100 µM (inactive)
COc1nc2ccc(CNc3ccc(C(=O)NC(CCC(=O)O)C(=O)O)cc3)cc2nc1OC (stereo unspecified)	25.3 µM (inactive)	–	> 100 µM (inactive)	> 100 µM (inactive)	> 100 µM (inactive)	> 100 µM (inactive)	> 100 µM (inactive)	> 100 µM (inactive)	> 100 µM (inactive)	–	> 100 µM (inactive)	> 100 µM (inactive)	> 100 µM (inactive)	> 100 µM (inactive)	> 100 µM (inactive)	> 100 µM (inactive)	> 100 µM (inactive)	39.6 µM (inactive)	> 100 µM (inactive)	> 100 µM (inactive)
C/C(=C1/N=C(c2cc([N+](=O)[O-])ccc2Cl)N(c2ccc(Br)cc2)C1=O)c1cc2ccccc2oc1=O	34.4 µM (inactive)	12.9 µM (inactive)	23.4 µM (inactive)	42.1 µM (inactive)	24 µM (inactive)	3.38 µM (inactive)	25.9 µM (inactive)	45.8 µM (inactive)	55.8 µM (inactive)	–	23.7 µM (inactive)	> 100 µM (inactive)	26.6 µM (inactive)	26.1 µM (inactive)	> 100 µM (inactive)	20.3 µM (inactive)	18.3 µM (inactive)	34.2 µM (inactive)	–	25.9 µM (inactive)
O=C(O)c1cc2sc(C(=O)O)cc2s1	> 100 µM (inactive)	> 100 µM (inactive)	> 100 µM (inactive)	> 100 µM (inactive)	–	> 100 µM (inactive)	> 100 µM (inactive)	> 100 µM (inactive)	> 100 µM (inactive)	> 100 µM (inactive)	> 100 µM (inactive)	–	> 100 µM (inactive)	> 100 µM (inactive)	> 100 µM (inactive)	> 100 µM (inactive)	> 100 µM (inactive)	> 100 µM (inactive)	> 100 µM (inactive)	> 100 µM (inactive)
